Reference: US20030207812A1, “Cd45 inhibitors” (priority 2002, published 2003)
Where two headings read alike, the source gives them in different places. Where a SMILES comes first, the peptide text is derived from it. The star is where a group is joined. 3Phenanthroyl(9,10-dioxo) = O=C1C(=O)c2ccc(C(=O)*)cc2-c2ccccc21; X1 = O=C1C(=O)c2cc(N*)ccc2-c2ccccc21

Tests used:
[1] = target: T1, CD45 (Homo sapiens, UniProt P08575); assay: Phosphatase assay using pNPP as substrate; type: biochemical
T1 construct: incubating the cytosolic portion of CD45 with the compounds and p-nitrophenyl phosphate (pNPP); purchased BIOMOL (Plymouth Meeting, Pa.)
T1 sequence (P08575 599-1306 limits assumed): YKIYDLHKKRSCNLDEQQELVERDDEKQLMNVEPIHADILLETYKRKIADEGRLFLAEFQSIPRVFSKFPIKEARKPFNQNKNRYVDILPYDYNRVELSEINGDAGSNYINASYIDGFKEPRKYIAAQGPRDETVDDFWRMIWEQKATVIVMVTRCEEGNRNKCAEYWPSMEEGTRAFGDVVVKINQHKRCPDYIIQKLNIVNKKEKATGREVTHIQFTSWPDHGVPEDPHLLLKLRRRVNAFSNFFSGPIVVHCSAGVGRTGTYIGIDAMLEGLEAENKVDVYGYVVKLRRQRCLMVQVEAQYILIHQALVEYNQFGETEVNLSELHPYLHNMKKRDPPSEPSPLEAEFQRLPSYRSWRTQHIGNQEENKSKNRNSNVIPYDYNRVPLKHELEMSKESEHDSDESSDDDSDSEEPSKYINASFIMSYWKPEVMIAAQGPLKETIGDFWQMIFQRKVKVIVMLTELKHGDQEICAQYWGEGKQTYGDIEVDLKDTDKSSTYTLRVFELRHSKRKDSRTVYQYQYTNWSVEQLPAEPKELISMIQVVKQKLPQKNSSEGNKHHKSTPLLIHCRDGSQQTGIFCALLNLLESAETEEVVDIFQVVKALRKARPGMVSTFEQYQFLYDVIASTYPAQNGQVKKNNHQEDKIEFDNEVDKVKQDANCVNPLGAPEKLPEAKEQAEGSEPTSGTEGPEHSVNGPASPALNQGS
Description: Phosphatase assay using pNPP as substrate:
CD45 enzyme was obtained from BIOMOL (Plymouth Meeting, Pa.). Phosphatase activity was assayed in a buffer containing final concentrations of 25 mM imidazole at pH 7.0, 50 mM NaCl, 2.5 mM ethylenediaminetetraacetic acid (“EDTA”), 5 mM dithiothreitol (“DTT”) and 10 μg/mL bovine serum albumin (“BSA”) using pNPP as a substrate.

[2] = target: T1, CD45; assay: Phosphatase assay using lck 10-mer as substrate; type: biochemical; details: CD45 phosphatase, lck carboxy-terminal peptide TEGQpYQPQP substrate, pH 7.2; read-out: Ick IC50
Description: Phosphatase assay using lck 10-mer as substrate:
Phosphatase activity was assayed in 96 well plates in a buffer containing final concentrations of 25 mM HEPES at pH 7.2, 5 mM DTT and 10 μg/mL BSA using the lck carboxy-terminal peptide TEGQpYQPQP as the substrate (Cho, H., Krishnaraj, R., Itoh, M., Kitas, E., Bannwarth, W., Saito, H., Walsh, C. T. 1993. Substrate specificities of catalytic fragments of protein tyrosine phosphatases (HPTPb, LAR, and CD45) toward the phosphotyrosylpeptide substrates and thiophosphotyrosylated peptides as inhibitors. Protein Science 2:977-984). Compounds were tested in a range from 30 to 0.01 μM in a final concentration of 5% DMSO. Enzyme was incubated with substrate with or without compound, at room temperature for 1.5 h. At the end of the incubation period, BIOMOL “Green Reagent” (BIOMOL, Plymouth Meeting, Pa.) was added to each well, the plates incubated at room temperature for 30 min and absorbance read at 620 nm.

[3] = system: T cells (PBMC); assay: cells; type: cell-based, human; details: read-out: T cell prolif. IC50
Description: Cell isolation and T cell proliferation assay:
Whole blood was obtained from healthy human blood donors. Peripheral blood mononuclear cells (“PBMC”) were isolated using Lymphoprep density-gradient centrifugation (Nycomed Amersham, Oslo, Norway), washed, counted and resuspended at 2×10^6 cells/mL in RPMI 1640 medium containing glutamine, 0.1 mg/mL gentamycin and 10% heat inactivated human serum. PBMC were transferred to 96-well plates (2×10^5 cells/well) containing compound or vehicle control, with the final concentration of DMSO not to exceed 0.3%, and incubated for 1 hour before addition of the activating anti-CD3 antibody, OKT3 (30ng/mL). After 24 hours in culture, the cells were pulsed with [^3H]thymidine (1 μCi/well) overnight and harvested the next day onto 96-well Packard GF/C filter plates using a Packard Cell Harvester (Packard Instruments, Meriden, Conn.). The filter plate was dried, the bottom of the plate sealed, 25 μL of Microscint 20 scintillation fluid added to each well, the top of the plate sealed with TopSeal-A, and the plate counted on a Packard TopCount. The data from the TopCount is transferred into Excel 5 (Microsoft, Redmond, Wash.) and formatted for EC50 determination using Prism software (GraphPad Software, San Diego, Calif.).

[4] = Cytotoxicity assay (Calcein-AM uptake); details: human, PHA-expanded T-cell lymphoblasts from PBMC
[5] = CD45 phosphatase, pNPP substrate, pH 7.0, read-out: pNPP IC50
[6] = human PBMC, OKT3 30 ng/mL, [3H]thymidine

## COC(=O)CCC(=O)Nc1cccc2c1-c1ccccc1C(=O)C2=O [Example 63, N-(9,10-Dioxo-9,10-dihydro-phenanthren-4-yl)-succinamic Acid Methyl Ester]
[1]; [5]
  IC50: 700 nM
[2]
  IC50: 2600 nM
[3]; [6]
  IC50: 1200 nM
[4]
  CC50: 8000 nM

## O=C(O)CNC(=O)c1ccc2c(c1)C(=O)C(=O)c1ccccc1-2 [Example 105, [(9,10-Dioxo-9,10-dihydro-phenanthrene-2-carbonyl)-amino]-acetic acid]
[1]; [5]
  IC50: 800 nM
[2]
  IC50: 2200 nM
[3]; [6]
  IC50: 4400 nM
[4]
  CC50: > 30000 nM

## CC(=O)Nc1ccc2c(c1)C(=O)C(=O)c1ccccc1-2 [Example 81, N-(9,10-Dioxo-9,10-dihydro-phenanthren-2-yl)-acetamide]
[1]; [5]
  IC50: 1200 nM
[2]
  IC50: 2500 nM
[3]; [6]
  IC50: 200 nM
[4]
  CC50: 900 nM

## CC(C)(C)OC(=O)CNC(=O)c1ccc2c(c1)C(=O)C(=O)c1ccccc1-2 [Example 103, [(9,10-Dioxo-9,10-dihydro-phenanthrene-2-carbonyl)-amino]-acetic acid tert-butyl ester]
[1]; [5]
  IC50: 600 nM
[2]
  IC50: 4900 nM
[3]; [6]
  IC50: 400 nM
[4]
  CC50: 10000 nM

## CC(C)(C)OC(=O)CNC(=O)c1ccc2c(c1)-c1ccccc1C(=O)C2=O [Example 102, [(9,10-dioxo-9,10-dihydro-phenanthrene-3-carbonyl)-amino]-acetic acid tert-butyl ester]
[2]
  IC50: 3400 nM
[3]; [6]
  IC50: 300 nM
[4]
  CC50: 2500 nM

## COC(=O)CCCCCCC(=O)Nc1ccc2c(c1)C(=O)C(=O)c1ccccc1-2 [Example 71, 7-(9,10-Dioxo-9,10-dihydro-phenanthren-2-ylcarbamoyl)-heptanoic Acid Methyl Ester]
[1]; [5]
  IC50: 500 nM
[2]
  IC50: 3700 nM
[4]
  CC50: 14000 nM

## CC(=O)N[C@@H](Cc1ccccc1)C(=O)N[C@H](C(=O)N[C@@H](C)C(=O)N[C@H](C(=O)N[C@@H](CCC(=O)O)C(=O)NCC(=O)N[C@@H](CCC(N)=O)C(=O)N[C@@H](CC(=O)Nc1ccc2c(c1)C(=O)C(=O)c1ccccc1-2)C(=O)O)[C@@H](C)O)[C@@H](C)O [Example 62] (Ac-FTATEGQD(X1)-OH)
[1]; pH 7, read-out: pNPP IC50
  IC50: 1400 nM

## COc1ccccc1-c1ccc2c(c1)C(=O)C(=O)c1ccccc1-2 [Example 20, 2-(2-Methoxy-phenyl)-phenanthrene-9,10-dione]
[1]; [5]
  IC50: 990 nM
[4]
  CC50: 8900 nM

## NC(=O)CC[C@H](NC(=O)[C@@H]1CCCN1C(=O)[C@H](CCC(=O)O)NC(=O)CNC(=O)c1ccc2c(c1)-c1ccccc1C(=O)C2=O)C(=O)NCC(=O)O [Example 38] ({3Phenanthroyl(9,10-dioxo)}-GEPQG-OH)
[1]
  IC50: 700 nM
[2]
  IC50: 2200 nM

## NC(=O)CC[C@H](NC(=O)c1ccc2c(c1)-c1ccccc1C(=O)C2=O)C(=O)N[C@@H](CCC(N)=O)C(=O)N1CCC[C@H]1C(=O)N[C@@H](CCC(=O)O)C(=O)NCC(=O)O [Example 34] ({3Phenanthroyl(9,10-dioxo)}-QQPEG-OH)
[1]
  IC50: 900 nM
[2]
  IC50: 1900 nM

## CC(=O)N[C@H](C(=O)N[C@@H](C)C(=O)N[C@H](C(=O)N[C@@H](CCC(=O)O)C(=O)NCC(=O)N[C@@H](CCC(N)=O)C(=O)N[C@@H](CC(=O)Nc1ccc2c(c1)C(=O)C(=O)c1ccccc1-2)C(=O)O)[C@@H](C)O)[C@@H](C)O [Example 61] (Ac-TATEGQD(X1)-OH)
[1]; pH 7, read-out: pNPP IC50
  IC50: 1800 nM

## O=C1C(=O)c2ccc(NC(=O)c3ccccc3C(F)(F)F)cc2-c2ccccc21 [Example 13, N-(9,10-Dioxo-9,10-dihydro-phenanthren-3-yl)-2-trifluoromethyl-benzamide]
[1]; [5]
  IC50: 1100 nM
[2]
  IC50: 5800 nM
[4]
  CC50: 14000 nM

## COC(=O)CCC(=O)Nc1ccc2c(c1)C(=O)C(=O)c1cc(NC(=O)CCC(=O)OC)ccc1-2 [Example 82, N-[7-(3-Methoxycarbonyl-propionylamino)-9,10-dioxo-9,10-dihydro-phenanthren-2-yl]-succinamic Acid Methyl Ester]
[1]; [5]
  IC50: 500 nM
[2]
  IC50: 2900 nM
[4]
  CC50: 7000 nM

## Cc1ccc(S(=O)(=O)N(c2ccc3c(c2)C(=O)C(=O)c2ccccc2-3)S(=O)(=O)c2ccc(C)cc2)cc1 [Example 14, N-(9,10-Dioxo-9,10-dihydro-phenanthren-2-yl)-4-methyl-N-[(4-methylphenyl)sulfonyl]-benzenesulfonamide]
[1]; [5]
  IC50: 12900 nM
[2]
  IC50: > 30000 nM
[4]
  CC50: 5300 nM

## O=C1C(=O)c2cccc([N+](=O)[O-])c2-c2ccc([N+](=O)[O-])cc21 [Example 95, 2,5-Dinitro-phenanthrene-9,10-dione]
[3]; Homo sapiens
  IC50: > 30000 nM
[4]
  CC50: ≥ 30000 nM

## O=C(O)c1ccc2c(c1)-c1ccccc1C(=O)C2=O [Example 98, 9,10-Dioxo-9,10-dihydro-phenanthrene-3-carboxylic Acid]
[1]; [5]
  IC50: 1000 nM
[2]
  IC50: 2400 nM
[3]; [6]
  IC50: > 30000 nM

## O=C1C(=O)c2cccc([N+](=O)[O-])c2-c2ccccc21 [Example 93, 4-Nitro-phenanthrene-9,10-dione]
[1]; [5]
  IC50: 500 nM
[2]
  IC50: 3900 nM
[4]
  CC50: 10000 nM

## Nc1ccc2c(c1)C(=O)C(=O)c1ccccc1-2 [Example 87, 2-Amino-phenanthrene-9,10-dione]
[1]; [5]
  IC50: 400 nM
[2]
  IC50: 2300 nM
[4]
  CC50: 5000 nM

## COC(=O)CCC(=O)Nc1ccc2c(c1)-c1ccccc1C(=O)C2=O [Example 90, N-(9,10-Dioxo-9,10-dihydro-phenanthren-3-yl)-succinamic Acid Methyl Ester]
[1]; [5]
  IC50: 400 nM
[2]
  IC50: 3200 nM
[4]
  CC50: 18000 nM

## COC(=O)CCCCCCCCC(=O)Nc1ccc2c(c1)C(=O)C(=O)c1ccccc1-2 [Example 72, 9-(9,10-Dioxo-9,10-dihydro-phenanthren-2-ylcarbamoyl)-nonanoic Acid Methyl Ester]
[1]; [5]
  IC50: > 30000 nM

## CC(C)(C)C(=O)Nc1ccc2c(c1)C(=O)C(=O)c1ccccc1-2 [Example 4, N-(9,10-Dioxo-9,10-dihydro-phenanthren-2-yl)-2,2-dimethyl-propionamide]
[1]; [5]
  IC50: 200 nM
[2]
  IC50: 3800 nM
[4]
  CC50: 3500 nM

## O=C1C(=O)c2cc(-c3cc4ccccc4o3)ccc2-c2ccccc21 [Example 16, 2-Benzofuran-2-yl-phenanthrene-9,10-dione]
[1]; [5]
  IC50: 3700 nM
[4]
  CC50: 3600 nM

## CC(=O)N[C@@H](C)C(=O)N[C@H](C(=O)N[C@@H](CCC(=O)O)C(=O)NCC(=O)N[C@@H](CCC(N)=O)C(=O)N[C@@H](CC(=O)Nc1ccc2c(c1)C(=O)C(=O)c1ccccc1-2)C(=O)O)[C@@H](C)O [Example 60] (Ac-ATEGQD(X1)-OH)
[1]; [5]
  IC50: 2000 nM
[2]
  IC50: 7900 nM

## Nc1ccc2c(c1)-c1ccccc1C(=O)C2=O [Example 88, 3-Amino-phenanthrene-9,10-dione]
[1]; [5]
  IC50: 3740 nM
[2]
  IC50: 10500 nM
[4]
  CC50: 17000 nM

## O=C1C(=O)c2cc(-c3ccccc3F)ccc2-c2ccccc21 [Example 18, 2-(2-Fluoro-phenyl)-phenanthrene-9,10-dione]
[1]; [5]
  IC50: 750 nM
[4]
  CC50: 8400 nM
